Non-standard residues stand in square brackets, D forms with d. Residues, ends and D or L forms follow the SMILES beside them. *: point of attachment. Myristoyl = CCCCCCCCCCCCCC(=O)*; Octanoyl = CCCCCCCC(=O)*
What was measured:
[1] = system: E. coli CFT073 ATCC 700928 and/or E. coli Nissle 1917; assay: Cell-based assay with ClbP with LCMS, ClbP positive strain; settings: for % Remaining in ClbP Positve Relative to Media-Only: ClbP-encoding E. coli, 10 μM compound, 37° C., 20 h; for Difference between the ClbP Positive and ClbP Negative release profiles: conclusion from Table 4
Summary of the method: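 Compound (10 μM final) incubated 20 h at 37° C, aerobically, with 1:40-diluted overnight cultures of ClbP-positive E. coli or negative BL21(DE3), in duplicate, alongside uninoculated LB. Remaining parent quantified by LC-MS/MS (MRM) after acetonitrile quench, expressed as percent of media-alone.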

[2] = system: WT ClbP; assay: Assay with purified ClbP protein (LCMS); assay type: biochemical, E. coli; settings: 20 μM WT ClbP, room temperature, 24 h
Experimental: This example is representative of the method described in Example 91 the soluble peptidase domain (amino acids 38 to 375) of ClbP or the catalytically inert mutant S95A was cloned into pET28a using previously defined boundaries as a starting point (Brotherton, J. Am. Chem. Soc., 135:3359-3362, 2013).
WT ClbP or S95A ClbP was isolated as an N-terminally tagged HiS6-SUMO1-fusion protein from […] using E. coli BL21(DE3)RIPL to express the protein. The cells were lysed in 30 mM Tris pH 8.0, 300 mM NaCl, 10% (v/v) glycerol, benzonase (Sigma-Millipore), lysozyme, B-per (ThermoFisher), and Y-per (ThermoFisher). The lysate was clarified via centrifugation (13,000 g, 20 min), and the supernatant was incubated with HiBond Ni-NTA agarose (5 mL). The resin was subsequently washed with wash buffer (30 mM Tris pH 7.5, 250 mM NaCl, 10 mM imidazole, 3% (v/v) glycerol, and 2 mM TCEP). The resin was incubated at 30° C. for 1 h with 1.4 mg ULP1 protease. The resin was then washed with an additional fraction of wash buffer. Centrifuge filtration was used to concentrate the protein, and the concentrated protein was subsequently applied to a 16/600 Superdex 200 size exclusion column with an isocratic elution of 25 mM HEPES, 25 mM Tris pH 7.4, 325 mM NaCl, 10 mM KCl and 3% (v/v) glycerol at a flow rate of […]. The fractions containing the protein were determined by SDS-PAGE, combined, and concentrated by centrifuge filtration. 3 mM TCEP was added to the concentrated protein, which was then aliquoted, flash frozen in liquid N2, and stored at −80° C.
This example is representative of the method described in Example D, ClbP was incubated with test compounds in an in vitro assay. In a typical assay, 0, 1, or 20 μM purified WT or S95A ClbP was incubated with 100 or 500 μM compound in reaction buffer (50 mM Tris-HCl pH 7.5, 37.5 mM NaCl) at room temperature for 24 h. The total volume of this reaction was 150 μL.
After 24 h, 2 volumes of acetonitrile (300 μL) were added to the reaction to quench the solution.
The reaction was centrifuged (4,000 g, 15 min), and then the supernatant was analyzed by LCMS. 5 μL of the supernatant was injected onto an Acquity UPLC BEH C18 1.7 μm 2.1×100 column. Buffer A was 0.1% (v/v) formic acid in water and buffer B was 0.1% (v/v) formic acid in acetonitrile. The flow rate was 0.5 mL/min. The initial % B was 10, which was held for 30 s then ramped up to 90% B over 3 min, held at 90% B for 1 min, ramped down to 10% B over 15 s, and then held at 10% B for 15 s. The UV-Vis spectrum from 210-400 nm was monitored with 3.6 nm resolution. Positive and negative mode ESI were monitored from 100-1000 m/z with a 20 V cone voltage at 5 Hz sampling frequency in centroid collection.
The relative starting material remaining in the WT ClbP reaction was determined by LCMS and then compared to the residual starting material in the no-enzyme and catalytically inert enzyme (S95A ClbP) reactions. In an ideal case, the amount of residual starting material in the WT ClbP reaction was <25% of the amount in the S95A ClbP and no-enzyme conditions. In an acceptable case, the amount of residual starting material in the WT ClbP reaction was 25-75% of the amount in the S95A ClbP and no-enzyme conditions. In a non-preferred case, the amount of residual starting material in the WT ClbP reaction was >75% of the amount in the S95A ClbP and no-enzyme conditions.
Formation of the anticipated product was likewise quantified by LCMS analysis and confirmed by coelution with an external product standard. In an ideal case, the amount of product formed in the WT ClbP reaction corresponded to >75% of the theoretical maximum. In an acceptable case, the amount of product formed in the WT ClbP reaction corresponded to 25-75% of the theoretical maximum. In a non-preferred case, the amount of product formed in the WT ClbP reaction corresponded to <25% of the theoretical maximum.

With `CCCCCCCCCCCCCC(=O)N[C@H](CC(N)=O)C(=O)N[C@@H](C)C(=O)OC` [Example 1, Methyl tetradecanoyl-D-asparaginyl-L-alaninate] (Myristoyl-[dN]-Ala-OMe) the “% Remaining in ClbP Positve Relative to Media-Only” value [1] was “+ (between 25-75% compound remaining in the 20 μM WT ClbP reaction relative to the no-enzyme control)” and the “Status (compound remaining in WT ClbP reaction relative to no-enzyme control)” value ([2]; 500 μM compound) was “− (>75% compound remaining in the 20 μM WT ClbP reaction relative to the no-enzyme control)”.

With `CCCCCCCC(=O)N[C@H](CC(N)=O)C(=O)N[C@@H](C)C(=O)OC` [Example 2, Methyl octanoyl-D-asparaginyl-L-alaninate] (Octanoyl-[dN]-Ala-OMe) the “% Remaining in ClbP Positve Relative to Media-Only” value [1] was “++ (<25% compound remaining in the 20 μM WT ClbP reaction relative to the control)” and the “Status (compound remaining in WT ClbP reaction relative to no-enzyme control)” value ([2]; 100 μM compound) was “++ (<25% compound remaining in the 20 μM WT ClbP reaction relative to the control)”.

`CCCCCCCC(=O)N[C@@H](CC(N)=O)C(=O)N[C@@H](C)C(=O)OC` [Example 4, Methyl octanoyl-L-asparaginyl-L-alaninate] (Octanoyl-Asn-Ala-OMe) was tested, and the “% Remaining in ClbP Positve Relative to Media-Only” value [1] was “++ (<25% compound remaining in the 20 μM WT ClbP reaction relative to the control)” and the “Status (compound remaining in WT ClbP reaction relative to no-enzyme control)” value ([2]; 500 μM compound) was “− (>75% compound remaining in the 20 μM WT ClbP reaction relative to the no-enzyme control)”.

In the case of `CCCCCCCC(=O)N[C@H](CC(N)=O)C(=O)N[C@H](C)C(=O)OC` [Example 5, Methyl octanoyl-D-asparaginyl-D-alaninate] (Octanoyl-[dN]-[dA]-OMe), the “% Remaining in ClbP Positve Relative to Media-Only” value [1] was “++ (<25% compound remaining in the 20 μM WT ClbP reaction relative to the control)”, the “Difference between the ClbP Positive and ClbP Negative release profiles” value [1] was “particularly favorable difference” and the “Status (compound remaining in WT ClbP reaction relative to no-enzyme control)” value ([2]; 100 μM compound) was “++ (<25% compound remaining in the 20 μM WT ClbP reaction relative to the control)”.

`CCCCCCCC(=O)N[C@H](CC(N)=O)C(=O)N[C@H](C(=O)OC)C(C)C` [Example 6, Methyl octanoyl-D-asparaginyl-L-valinate] (Octanoyl-[dN]-Val-OMe) was tested, and the “% Remaining in ClbP Positve Relative to Media-Only” value [1] was “++ (<25% compound remaining in the 20 μM WT ClbP reaction relative to the control)” and the “Status (compound remaining in WT ClbP reaction relative to no-enzyme control)” value ([2]; 100 μM compound) was “++ (<25% compound remaining in the 20 μM WT ClbP reaction relative to the control)”.

With `CCCCCCCC(=O)N[C@H](CC(N)=O)C(=O)N[C@@H](CC(C)C)C(=O)OC` [Example 7, Methyl octanoyl-D-asparaginyl-L-leucinate] (Octanoyl-[dN]-Leu-OMe) the “% Remaining in ClbP Positve Relative to Media-Only” value [1] was “+ (between 25-75% compound remaining in the 20 μM WT ClbP reaction relative to the no-enzyme control)” and the “Status (compound remaining in WT ClbP reaction relative to no-enzyme control)” value ([2]; 100 μM compound) was “++ (<25% compound remaining in the 20 μM WT ClbP reaction relative to the control)”.

In the case of `CCCCCCCC(=O)N[C@H](CCC(=O)O)C(=O)N[C@@H](C)C(=O)OC` [Example 9, (R)-5-(((S)-1-methoxy-1-oxopropan-2-yl)amino)-4-octanamido-5-oxopentanoic acid] (Octanoyl-[dE]-Ala-OMe), the “% Remaining in ClbP Positve Relative to Media-Only” value [1] was “+ (between 25-75% compound remaining in the 20 μM WT ClbP reaction relative to the no-enzyme control)” and the “Status (compound remaining in WT ClbP reaction relative to no-enzyme control)” value ([2]; 100 μM compound) was “− (>75% compound remaining in the 20 μM WT ClbP reaction relative to the no-enzyme control)”.

`CCCCCCCC(=O)N[C@H](CCC(N)=O)C(=O)N[C@@H](C)C(=O)OC` [Example 10, Methyl octanoyl-D-glutaminyl-L-alaninate] (Octanoyl-[dQ]-Ala-OMe) was tested, and the “% Remaining in ClbP Positve Relative to Media-Only” value [1] was “+ (between 25-75% compound remaining in the 20 μM WT ClbP reaction relative to the no-enzyme control)” and the “Status (compound remaining in WT ClbP reaction relative to no-enzyme control)” value ([2]; 500 μM compound) was “− (>75% compound remaining in the 20 μM WT ClbP reaction relative to the no-enzyme control)”.

`CCCCCCCC(=O)N[C@H](CCCNC(=N)N)C(=O)N[C@@H](C)C(=O)OC` [Example 11, Methyl octanoyl-D-arginyl-L-alaninate] (Octanoyl-[dR]-Ala-OMe) was tested, and the “% Remaining in ClbP Positve Relative to Media-Only” value [1] was “+ (between 25-75% compound remaining in the 20 μM WT ClbP reaction relative to the no-enzyme control)” and the “Status (compound remaining in WT ClbP reaction relative to no-enzyme control)” value ([2]; 500 μM compound) was “− (>75% compound remaining in the 20 μM WT ClbP reaction relative to the no-enzyme control)”.

In the case of `COC(=O)[C@H](C)NC(=O)[C@@H](CC(N)=O)NC(=O)[C@@H](C)c1ccc2cc(OC)ccc2c1` [Example 18, Methyl ((S)-2-(6-methoxynaphthalen-2-yl)propanoyl)-D-asparaginyl-L-alaninate], the “% Remaining in ClbP Positve Relative to Media-Only” value [1] was “+ (between 25-75% compound remaining in the 20 μM WT ClbP reaction relative to the no-enzyme control)” and the “Status (compound remaining in WT ClbP reaction relative to no-enzyme control)” value ([2]; 100 μM compound) was “++ (<25% compound remaining in the 20 μM WT ClbP reaction relative to the control)”.

`CCCCCCCCCCCCCC(=O)N[C@H](CC(N)=O)C(=O)NCCCC(=O)OC` [Example 20, Methyl (R)-4-(4-amino-4-oxo-2-tetradecanamidobutanamido)butanoate] was tested, and the “% Remaining in ClbP Positve Relative to Media-Only” value [1] was “+ (between 25-75% compound remaining in the 20 μM WT ClbP reaction relative to the no-enzyme control)” and the “Status (compound remaining in WT ClbP reaction relative to no-enzyme control)” value ([2]; 100 μM compound) was “− (>75% compound remaining in the 20 μM WT ClbP reaction relative to the no-enzyme control)”.

`CCCCCCCCCCCCCC(=O)N[C@H](CC(N)=O)C(=O)N[C@@H](C)CCC(=O)OC` [Example 21, Methyl (S)-4-((R)-4-amino-4-oxo-2-tetradecanamidobutanamido)pentanoate] was tested, and the “% Remaining in ClbP Positve Relative to Media-Only” value [1] was “+ (between 25-75% compound remaining in the 20 μM WT ClbP reaction relative to the no-enzyme control)” and the “Status (compound remaining in WT ClbP reaction relative to no-enzyme control)” value ([2]; 100 μM compound) was “+ (between 25-75% compound remaining in the 20 μM WT ClbP reaction relative to the no-enzyme control)”.

With `CCCCCCCCCCCCCC(=O)N[C@H](CC(N)=O)C(=O)N[C@@H](C)CCC(=O)O[C@]1(CC)C(=O)OCc2c1cc1n(c2=O)Cc2c-1nc1ccc(O)cc1c2CC` [Example 35, (S)-4,11-diethyl-9-hydroxy-3,14-dioxo-3,4,12,14-tetrahydro-1H-pyrano[3′,4′:6,7]indolizino[1,2-b]quinolin-4-yl (S)-4-((R)-4-amino-4-oxo-2-tetradecanamidobutanamido)pentanoate] the “% Remaining in ClbP Positve Relative to Media-Only” value [1] was “+ (between 25-75% compound remaining in the 20 μM WT ClbP reaction relative to the no-enzyme control)” and the “Difference between the ClbP Positive and ClbP Negative release profiles” value [1] was “particularly favorable difference”.

With `CCCCCCCC(=O)N[C@H](CC(N)=O)C(=O)NCCN(C)C(=O)Oc1ccc2c(C)cc(=O)oc2c1` [Example 70, 4-methyl-2-oxo-2H-chromen-7-yl (R)-(2-(4-amino-2-octanamido-4-oxobutanamido)ethyl)(methyl)carbamate] the “% Remaining in ClbP Positve Relative to Media-Only” value [1] was “+ (between 25-75% compound remaining in the 20 μM WT ClbP reaction relative to the no-enzyme control)” and the “Difference between the ClbP Positive and ClbP Negative release profiles” value [1] was “particularly favorable difference”.

Source: patent publication US11998610B2, “Conjugates and methods of using the same” (Flagship Pioneering Innovations V, Inc., priority 2018, dated 2024)
